Earlier results as cited in patent US4083974A, “Topical steroidal anti-inflammatory preparations containing polyoxypropylene 15 stearyl ether” (The Upjohn Company, priority 1977, dated 1978).

What was measured:
[1] = test system: bacterial; conditions: prior art; composition contains approximately 15% ethyl alcohol
[2] = known property from the art
[3] = known property of the prior-art solvent

| SMILES | anti-bacterial activity [1] | lubricant properties [2] | irritation to the skin [3] |
| --- | --- | --- | --- |
| CCO [ethyl alcohol] | known anti-bacterial agent | – | – |
| CC(O)CO (stereo not drawn) [Propylene glycol, propylene glycol] | – | non-lubricant | irritating to the skin |
